Test system: N. gonorrhoeae
Test: In vitro time-kill assay
Format: cell-based, Neisseria gonorrhoeae
Details: for mean time to reach bactericidal activity: ten isolates
Excerpt: The 2024 WHO N. gonorrhoeae reference strains were used for quality control. Only whole MIC doubling dilutions are reported. Clinical breakpoints or the epidemiological cutoff (ECOFF, to indicate azithromycin resistance) from EUCAST (v14.0, https://www.eucast.org/clinical_breakpoints) were used to classify isolates as antimicrobial susceptible or resistant. […] Two times the standard inoculum defined by CLSI was used to establish consistent growth in untreated control samples for some strains. In vitro time-kill assays were performed according to CLSI guidelines[65] using Columbia Broth (BD Difco) supplemented with 1% IsoVitaleX Enrichment (BD). Viable bacterial counts were generated by plating 10-fold serially diluted samples on GC agar plates containing 1% IsoVitaleX Enrichment (BD).

Cc1c(CN(C)C(=O)/C=C/c2cnc3c(c2)N[C@H](C)[C@H](O)C(=O)N3)oc2ccccc12 [Debio 1453]
mean time to reach bactericidal activity (2× MIC): 10 h | mean time to reach bactericidal activity (4× MIC): 8.5 h | mean time to reach bactericidal activity (8× MIC): 8 h | mean time to reach bactericidal activity (16× MIC): 8 h | Log10CFU/ml (time kill) (6804, 2X MIC, 0 hr): 6.11 Log10CFU/ml | Log10CFU/ml (time kill) (6804, 2X MIC, 1 hr): 6.05 Log10CFU/ml | Log10CFU/ml (time kill) (6804, 2X MIC, 3 hr): 5.70 Log10CFU/ml | Log10CFU/ml (time kill) (6804, 2X MIC, 6 hr): 5.13 Log10CFU/ml | Log10CFU/ml (time kill) (6804, 2X MIC, 10 hr): 4.59 Log10CFU/ml | Log10CFU/ml (time kill) (6804, 2X MIC, 24 hr): 1.95 Log10CFU/ml | Log10CFU/ml (time kill) (6804, 4X MIC, 0 hr): 6.04 Log10CFU/ml | Log10CFU/ml (time kill) (6804, 4X MIC, 1 hr): 6.04 Log10CFU/ml | Log10CFU/ml (time kill) (6804, 4X MIC, 3 hr): 5.43 Log10CFU/ml | Log10CFU/ml (time kill) (6804, 4X MIC, 6 hr): 4.53 Log10CFU/ml | Log10CFU/ml (time kill) (6804, 4X MIC, 10 hr): 3.72 Log10CFU/ml | Log10CFU/ml (time kill) (6804, 4X MIC, 24 hr): 1.95 Log10CFU/ml | Log10CFU/ml (time kill) (6804, 8X MIC, 0 hr): 6.21 Log10CFU/ml | Log10CFU/ml (time kill) (6804, 8X MIC, 1 hr): 6.03 Log10CFU/ml | Log10CFU/ml (time kill) (6804, 8X MIC, 3 hr): 5.13 Log10CFU/ml | Log10CFU/ml (time kill) (6804, 8X MIC, 6 hr): 4.30 Log10CFU/ml | Log10CFU/ml (time kill) (6804, 8X MIC, 10 hr): 3.41 Log10CFU/ml | Log10CFU/ml (time kill) (6804, 8X MIC, 24 hr): 1.95 Log10CFU/ml | Log10CFU/ml (time kill) (6804, 16X MIC, 0 hr): 6.00 Log10CFU/ml | Log10CFU/ml (time kill) (6804, 16X MIC, 1 hr): 6.07 Log10CFU/ml | Log10CFU/ml (time kill) (6804, 16X MIC, 3 hr): 5.20 Log10CFU/ml | Log10CFU/ml (time kill) (6804, 16X MIC, 6 hr): 4.67 Log10CFU/ml | Log10CFU/ml (time kill) (6804, 16X MIC, 10 hr): 3.70 Log10CFU/ml | Log10CFU/ml (time kill) (6804, 16X MIC, 24 hr): 1.95 Log10CFU/ml | Log10CFU/ml (time kill) (AR Bank0175, 2X MIC, 0 hr): 6.11 Log10CFU/ml | Log10CFU/ml (time kill) (AR Bank0175, 2X MIC, 1 hr): 5.92 Log10CFU/ml | Log10CFU/ml (time kill) (AR Bank0175, 2X MIC, 3 hr): 5.61 Log10CFU/ml | Log10CFU/ml (time kill) (AR Bank0175, 2X MIC, 6 hr): 4.46 Log10CFU/ml | Log10CFU/ml (time kill) (AR Bank0175, 2X MIC, 10 hr): 3.38 Log10CFU/ml | Log10CFU/ml (time kill) (AR Bank0175, 2X MIC, 24 hr): 1.95 Log10CFU/ml | Log10CFU/ml (time kill) (AR Bank0175, 4X MIC, 0 hr): 6.15 Log10CFU/ml | Log10CFU/ml (time kill) (AR Bank0175, 4X MIC, 1 hr): 5.59 Log10CFU/ml | Log10CFU/ml (time kill) (AR Bank0175, 4X MIC, 3 hr): 5.22 Log10CFU/ml | Log10CFU/ml (time kill) (AR Bank0175, 4X MIC, 6 hr): 4.45 Log10CFU/ml | Log10CFU/ml (time kill) (AR Bank0175, 4X MIC, 10 hr): 3.28 Log10CFU/ml | Log10CFU/ml (time kill) (AR Bank0175, 4X MIC, 24 hr): 1.95 Log10CFU/ml | Log10CFU/ml (time kill) (AR Bank0175, 8X MIC, 0 hr): 5.85 Log10CFU/ml | Log10CFU/ml (time kill) (AR Bank0175, 8X MIC, 1 hr): 5.40 Log10CFU/ml | Log10CFU/ml (time kill) (AR Bank0175, 8X MIC, 3 hr): 5.08 Log10CFU/ml | Log10CFU/ml (time kill) (AR Bank0175, 8X MIC, 6 hr): 3.85 Log10CFU/ml | Log10CFU/ml (time kill) (AR Bank0175, 8X MIC, 10 hr): 2.95 Log10CFU/ml | Log10CFU/ml (time kill) (AR Bank0175, 8X MIC, 24 hr): 1.95 Log10CFU/ml | Log10CFU/ml (time kill) (AR Bank0175, 16X MIC, 0 hr): 6.08 Log10CFU/ml | Log10CFU/ml (time kill) (AR Bank0175, 16X MIC, 1 hr): 5.41 Log10CFU/ml | Log10CFU/ml (time kill) (AR Bank0175, 16X MIC, 3 hr): 4.92 Log10CFU/ml | Log10CFU/ml (time kill) (AR Bank0175, 16X MIC, 6 hr): 3.81 Log10CFU/ml | Log10CFU/ml (time kill) (AR Bank0175, 16X MIC, 10 hr): 3.23 Log10CFU/ml | Log10CFU/ml (time kill) (AR Bank0175, 16X MIC, 24 hr): 1.95 Log10CFU/ml
